The values below come from US7238469B2, “Carbon monoxide improves outcomes in tissue and organ transplants and suppresses apoptosis” (priority 2001, dated 2007).

Structures are written as SMILES.

In experiment [1] the test system is βTC3 cells. Kind of experiment: TNF-α mediated apoptosis of β-gal transfected βTC3 cells (percentage of viable cells). Format: cell-based, murine. How it is done: The murine insulinoma cell line βTC3 (DSMZ, Braunschweig, Germany) was cultured in Dulbecco's Modified Eagle's Medium (DMEM) (Life Technologies, Grand Island, N.Y., USA) supplemented with 2 mM L-glutamine, 100 U/ml penicillin G, 100 U/ml streptomycin and 10% Fetal Calf Serum (FCS) (Life Technologies) and incubated in humidified 5% CO2/95% air at 37° C. This murine β-cell line, derived from transgenic mice carrying a hybrid insulin-promoter simian virus 40 tumor antigen, is known to maintain the features of differentiated β-cells for about 50 passages in culture. […] Compared to other frequently used transformed β-cell lines such as RIN-m5F and HIT, levels of secreted insulin are closer to normal β-cells in the βTC3 cell line. Thus, these cells are useful for studying β-cell regulation and gene expression (D'Ambra et al., Endocrinology 726:2815–22, 1990).
βTC3 were seeded at 3×10^5 cells in 16 mm wells and transfected 15 to 20 hours later using Lipofectamine plus™ reagents (Life Technologies) according to the manufacturer's instructions. Total DNA was maintained constant using empty pcDNA3 vector. The percentage of viable cells was assessed by normalizing the percentage of viable cells of each DNA preparation to the number of control-transfected cells without the apoptotic stimulus (100% viability) (Soares et al., Nature Med. 4:1073–1077, 1998; Sato et al., J. Immunol. 166:4185–4194, 2001).
Murine recombinant TNF-α (R&D Systems) was dissolved in PBS with 1% bovine serum albumin and added to the culture medium (17.5 ng/ml=500 U) 24 hours after transfection. The caspase-3 inhibitor Z-DEVD-FMK and the caspase-8 inhibitor IETD-CHO (Calbiochem, San Diego, Calif.) were dissolved in dimethyl sulphoxide (DMSO, Sigma) and added to the culture medium (10 μM and 1 μM respectively) two hours before treatment with TNF-α. Tin protoporphyrin (SnPPIX) (Porphyrin Products, Logan, Utah) was dissolved (10 mM) in 100 mM NaOH and added 6 hours after transfection to the culture medium (50 μM). The guanylyl cyclase inhibitor 1H[1,2,4]oxadiazolo[4,3-α]quinoxalin-1 (ODQ; Calbiochem) was dissolved in DMSO and added to the culture medium (100 μM) 6 hours after transfection. The cGMP analogue 8-bromoguanosine-3′-5′-cyclic-monophosphate (8-Br-cGMP) (Sigma) was dissolved in water and added to the culture medium (10 μM) 30 minutes before induction of apoptosis. The protein kinase G inhibitor KT5823 (Calbiochem) was dissolved in DMSO and added to the culture medium (1.6 μM) 6 hours after transfection.
Cells and islets were exposed to 1% carbon monoxide in compressed air balanced with 5% CO2, as described elsewhere (see, e.g., Otterbein et al., Nature Med. 6:422–428, 2000). Islets were incubated in RPMI medium pre-saturated with carbon monoxide (4° C. overnight, 1% CO, 5% CO2) for two hours at 37° C. while treatment with 1% CO, 5% CO2 was continued.

The subject of experiment [2] is VASP. Kind of experiment: VASP phosphorylation by Western blot in ECs. In kind it is cell-based. How it is done: Cell extracts were prepared, electrophoresed under denaturing conditions (10–12.5% polyacrylamide gels), and transferred into polyvinyldifluoridine membranes (Immobilon P™; Millipore). HO-1 was detected using a rabbit anti-human HO-1 polyclonal antibody (StressGen Biotechnologies). Vasodilatator-stimulated phosphoprotein (VASP) was detected using a rabbit anti-human VASP polyclonal antibody (Calbiochem-Novabiochem). […] Primary antibodies were detected using horseradish peroxidase-conjugated donkey anti-rabbit or goat anti-mouse IgG secondary antibodies (Pierce Chemical Co.). Peroxidase was visualized using the enhanced chemiluminescence assay (Amersham Pharmacia Biotech) according to the manufacturer's instructions, and stored in the form of photoradiographs (Biomax™ MS; Eastman Kodak Co.). […] The amount of phosphorylated ERK, JNK, and p38 MAPK was quantified using ImageQuant® software (Molecular Dynamics). […] Phosphorylated ERK, JNK, and p38 MAPK were normalized to the total amount of total ERK, JNK, and p38 MAPK detected in the same membrane.
Most biological functions attributed to CO have been linked to its ability to bind guanylcyclase and increase the generation of cGMP. […] (B) Activation of guanylcyclase was monitored in BAECs by analyzing the phosphorylation of VASP. […] (D) Phosphorylation of VASP was analyzed by Western blot as described above in B. N.T., nontreated. […]
(In general: Immunoblotting shows a protein as a band on a membrane.)

Take `[C-]#[O+]` [CO, carbon monoxide]: the “effect on β-cell apoptosis induced by etoposide or serum starvation” value in experiment [1] (1% CO) is reported as “suppressed”. Also, the “effect on β-cell apoptosis, CO exposure immediately after TNF-α” value in experiment [1] (1% CO for one hour, tested 24 hours later) is “sufficient to prevent β-cell apoptosis”. Also, the “effect on β-cell apoptosis, CO exposure after induction of apoptosis” value in experiment [1] (1% CO for one hour, two hours after TNF-α stimulation) is on record as “still able to suppress β-cell apoptosis”. In addition, in experiment [1] (1% CO, action of HO-1 suppressed by SnPPIX), the “effect on TNF-α mediated apoptosis” value is recorded as “suppressed TNF-α mediated apoptosis to a similar extent as HO-1”. In addition, in experiment [1] (one hour pre-incubation, TNF-α two to three hours after end of CO treatment), the “effect on β-cell apoptosis, pre-incubation with CO” value was “prevented β-cell apoptosis”.

Regarding `O=c1onc2cnc3ccccc3n12` [ODQ, 1H[1,2,4]oxadiazolo[4,3-α]quinoxalin-1], the VASP phosphorylation result in experiment [2] is given as “prevent constitutive VASP phosphorylation”. Also, in experiment [1] (TNF-α, 1% CO, ODQ 100 μM, KT5823 1.6 μM), the “effect on the anti-apoptotic effect of exogenous CO” value is “suppressed the anti-apoptotic effect of CO”.

`Nc1nc2c(nc(Br)n2[C@@H]2O[C@@H]3COP(=O)(O)O[C@H]3[C@H]2O)c(=O)[nH]1` [8-Br-cGMP, 8-bromoguanosine-3′-5′-cyclic-monophosphate]: the VASP phosphorylation result in experiment [2] is “induce VASP phosphorylation”. Also, the “effect on βTC3 apoptosis” value in experiment [1] (TNF-α, 8-Br-cGMP 10 μM, no CO) was “suppressed βTC3 apoptosis to an extent similar to that seen with carbon monoxide”.

For `C=Cc1c2[n-]c(c1C)/C=c1\[n-]/c(c(C)c1C=C)=C\c1[n-]c(c(CCC(=O)O)c1C)C=c1[n-]/c(c(C)c1CCC(=O)O)=C\2.[Sn+4]` [SnPPIX, tin protoporphyrin IX], the “anti-apoptotic effect of HO-1 over-expression when HO-1 activity was blocked” value in experiment [1] (TNF-α, SnPPIX 50 μM) is “the anti-apoptotic effect was suppressed”.
